The target in assay [1] is Gal4 DNA binding domain fused to the LBD of LXRβ in HEK293 cells (Homo sapiens (Human), UniProt P55055). The experiment in a line: cell-based.
For the next assay, the target named is LXR β LBD protein (Homo sapiens (Human), UniProt P55055). The experiment in a line: biochemical. It counts as binding.
Assay [2] has as its target Gal4 DNA binding domain fused to the LBD of LXRα in HEK293 cells (Homo sapiens (Human), UniProt Q13133). Nature of the assay: LXR luciferase transcriptional reporter gene assay, agonist mode, LXRα. It counts as cell-based. To be noted: for EC50: read-out: Cell LXRα EC50. A general note: Reporter assays use an easily measured gene product as a stand-in for the process of interest.

The mark [3] stands for this setting: Biological Test Example 2, agonist mode.
The mark [4] stands for this setting: Biological Test Example 2, agonist mode, read-out: Cell LXRβ EC50.
Setting [5] is: Biological Test Example 1, read-out: LXRβ Binding Ki.

The structures appear in SMILES notation. Where two headings read alike, the source gives them in different places.

The text below walks through data of patent US10144715B2, “Piperazine derivatives as liver X receptor modulators” (priority 2014, dated 2018).

Broadly, the EC50 is the concentration giving half of the maximal effect. What is called Ki is a dissociation constant, usually derived from enzyme kinetics or from competition with a known ligand.

Gal4 DNA binding domain fused to the LBD of LXRα in HEK293 cells, sequence (Q13133 209-447): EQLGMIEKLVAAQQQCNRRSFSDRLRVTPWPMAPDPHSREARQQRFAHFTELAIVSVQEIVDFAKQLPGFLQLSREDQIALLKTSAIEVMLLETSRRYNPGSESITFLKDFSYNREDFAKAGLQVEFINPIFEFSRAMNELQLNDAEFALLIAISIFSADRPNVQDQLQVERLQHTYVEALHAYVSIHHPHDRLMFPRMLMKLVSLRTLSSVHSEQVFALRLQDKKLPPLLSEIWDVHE
LXR β LBD protein, sequence (P55055 222-460 limits assumed): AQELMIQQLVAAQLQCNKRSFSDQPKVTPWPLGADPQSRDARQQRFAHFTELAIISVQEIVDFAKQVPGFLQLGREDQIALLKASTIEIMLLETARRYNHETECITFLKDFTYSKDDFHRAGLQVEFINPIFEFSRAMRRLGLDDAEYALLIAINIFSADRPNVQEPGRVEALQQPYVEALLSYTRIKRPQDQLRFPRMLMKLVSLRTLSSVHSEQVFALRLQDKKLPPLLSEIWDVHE
Gal4 DNA binding domain fused to the LBD of LXRβ in HEK293 cells, sequence (P55055 222-460 limits assumed): as above

In assay [1], `CC(=O)c1cnc(N2CCN(c3ccc(F)c(S(C)(=O)=O)c3)C[C@H]2c2ccc(F)cc2)nc1C(F)(F)F` [13-3, (R)-1-(2-(4-(4-fluoro-3-(methylsulfonyl)phenyl)-2-(4-fluorophenyl)piperazin-1-yl)-4-(trifluoromethyl)pyrimidin-5-yl)ethan-1-one] gave an EC50 of 360 nM. The “Cell LXRβ efficacy” value in assay [1] (agonist mode) was 360 (18) %. Further, the Ki on LXR β LBD protein (read-out: LXRβ Binding Ki) was 88 nM. In assay [2], the “Cell LXRα efficacy” value is reported as 2458 (21) % and the EC50 was 2460 nM.

In assay [1], `CS(=O)(=O)c1cccc(N2CCN(C[C@@H]3CC[C@@H](C(F)(F)F)OC3)[C@@H](c3ccc(F)cc3)C2)c1` (single isomer, unassigned) [49-11] gave an EC50 of 887 nM. The “Cell LXRβ efficacy” value in assay [1] (setting [3]) is 887 (21) %. For the same compound, the Ki on LXR β LBD protein was determined as 214 nM. In assay [2], the “Cell LXRα efficacy” value is listed as 2460 (42) % and the EC50 is 2460 nM.

For `CON(C)C(=O)c1cnc(N2CCN(c3ccc(F)c(S(C)(=O)=O)c3)C[C@H]2c2ccc(F)cc2)nc1C(F)(F)F` [17-32, (R)-2-(4-(4-fluoro-3-(methylsulfonyl)phenyl)-2-(4-fluorophenyl)piperazin-1-yl)-N-methoxy-N-methyl-4-(trifluoromethyl)pyrimidine-5-carboxamide], the EC50 in assay [1] and in assay [2] (agonist mode) was more than 20000 nM throughout. Moreover, on LXR β LBD protein, the Ki was determined as 435 nM.

Take `CC(C)(O)c1cc(CN2CCN(c3cccc(S(C)(=O)=O)c3)C[C@@H]2c2ccccc2)ccc1C(F)(F)F` [10-13, (S)-2-(5-((4-(3-(methylsulfonyl)phenyl)-2-phenylpiperazin-1-yl)methyl)-2-(trifluoromethyl)phenyl)propan-2-ol]: the EC50 in assay [1] and in assay [2] (agonist mode) was more than 20000 nM in each case. For the same compound, the inhibitory constant (Ki) at LXR β LBD protein (read-out: LXRβ Binding Ki) was 226 nM.

Regarding `CS(=O)(=O)c1cccc(N2CCN(C[C@@H]3C[C@H]4CC[C@@H](C3)N4CC(F)(F)F)[C@H](c3ccccc3)C2)c1` [48-75, (1R,3s,5S)-3-(((R)-4-(3-(methylsulfonyl)phenyl)-2-phenylpiperazin-1-yl)methyl)-8-(2,2,2-trifluoroethyl)-8-azabicyclo[3.2.1]octane], in assay [1] (setting [3]), the “Cell LXRβ efficacy” value came out at 21%. The results for the EC50 in assay [1] (setting [4]) and in assay [2] were 2400 nM and more than 20000 nM, respectively. Further, at LXR β LBD protein (setting [5]), the Ki was determined as 940 nM.

For `COC(=O)c1cnc(N2CCN(c3ccc(F)c(S(C)(=O)=O)c3)C[C@H]2c2ccc(F)cc2)nc1C(F)(F)F` [9-9, methyl (R)-2-(4-(4-fluoro-3-(methylsulfonyl)phenyl)-2-(4-fluorophenyl)piperazin-1-yl)-4-(trifluoromethyl)pyrimidine-5-carboxylate], the values for the EC50 in assay [1] and in assay [2] (agonist mode) were 780 nM and 3040 nM, respectively. Moreover, the “Cell LXRβ efficacy” value in assay [1] (agonist mode) is given as 780 (13) %. The Ki on LXR β LBD protein (read-out: LXRβ Binding Ki) stood at 298 nM. For the same compound, in assay [2], the “Cell LXRα efficacy” value was 3041 (6) %.

Take `CC(F)(F)[C@H]1CC[C@@H](CN2CCN(c3cccc(S(C)(=O)=O)c3)C[C@H]2c2ccccc2)CC1` (single isomer, unassigned) [48-29]: the “Cell LXRβ efficacy” value in assay [1] (agonist mode) is 20%. Besides, the EC50 in assay [1] (agonist mode, read-out: Cell LXRβ EC50) was determined as 1500 nM; in assay [2], 6290 nM. At LXR β LBD protein (read-out: LXRβ Binding Ki), the inhibitory constant (Ki) came out at 378 nM. Besides, the “Cell LXRα efficacy” value in assay [2] was 6290 (43) %.

Turning to `Cc1nc(N2CCN(c3ccc(F)c(S(C)(=O)=O)c3)CC2CC(F)(F)F)ncc1C(C)(C)O` (stereo not shown) [10-6, 2-(2-(4-(4-fluoro-3-(methylsulfonyl)phenyl)-2-(2,2,2-trifluoroethyl)piperazin-1-yl)-4-methylpyrimidin-5-yl)propan-2-ol], the figures for the EC50 in assay [1] and in assay [2] (agonist mode) were 1310 nM and 9160 nM, respectively. Further, at LXR β LBD protein (read-out: LXRβ Binding Ki), the Ki is 862 nM. The “Cell LXRα efficacy” value in assay [2] is given as 9158 (22) %.

`CSCc1cnc(N2CCN(c3ccc(F)c(S(C)(=O)=O)c3)C[C@H]2C(C)C)nc1C(F)(F)F` [15-8, (R)-2-(4-(4-fluoro-3-(methylsulfonyl)phenyl)-2-isopropylpiperazin-1-yl)-5-((methylthio)methyl)-4-(trifluoromethyl)pyrimidine]: the EC50 in assay [1] is 34 nM; in assay [2] (agonist mode), 219 nM. Besides, the “Cell LXRβ efficacy” value in assay [1] (agonist mode) is recorded as 34 (35) %. In addition, the Ki at LXR β LBD protein (read-out: LXRβ Binding Ki) amounted to 1 nM. Also, in assay [2], the “Cell LXRα efficacy” value is recorded as 219 (44) %.

`Cc1nc(N2CCN(c3ccc(F)c(S(C)(=O)=O)c3)C[C@H]2C(C)C)ncc1C(F)(F)F` [Cpd No 37-1, (R)-2-(4-(4-fluoro-3-(methylsulfonyl)phenyl)-2-isopropylpiperazin-1-yl)-4-methyl-5-(trifluoromethyl)pyrimidine]: in assay [1], the “Cell LXRβ efficacy” value was 41 (81) % and the 50% effective concentration (EC50) stood at 41 nM. Besides, the Ki on LXR β LBD protein (read-out: LXRβ Binding Ki) came out at 3 nM. Further, in assay [2], the “Cell LXRα efficacy” value is recorded as 262 (91) % and the EC50 is 262 nM.

For the compound `CC(C)[C@@H]1CN(c2ccc(F)c(S(C)(=O)=O)c2)CCN1c1ncc(C(=O)NC2CN(C(=O)OC(C)(C)C)C2)c(C(F)(F)F)n1` [17-20, tert-butyl (R)-3-(2-(4-(4-fluoro-3-(methylsulfonyl)phenyl)-2-isopropylpiperazin-1-yl)-4-(trifluoromethyl)pyrimidine-5-carboxamido)azetidine-1-carboxylate], the EC50 in assay [1] and in assay [2] (agonist mode) was more than 20000 nM in each case. Moreover, the Ki on LXR β LBD protein (read-out: LXRβ Binding Ki) was determined as 330 nM.

With `C[C@H](c1ccc(C(F)(F)F)cc1)N1CCN(c2cccc(S(C)(=O)=O)c2)C[C@@H]1c1ccccc1` (single isomer, unassigned) [46-18], in assay [1], the “Cell LXRβ efficacy” value is listed as 1434 (31) % and the EC50 was determined as 1430 nM. Further, at LXR β LBD protein, the Ki turned out to be 35 nM. Besides, in assay [2], the “Cell LXRα efficacy” value is given as 4598 (45) % and the EC50 came to 4600 nM.

`CCOC(=O)c1cnc(N2CCN(c3ccc(F)c(S(C)(=O)=O)c3)CC2CC(F)(F)F)nc1C` (stereo not shown) [7-22, ethyl 2-(4-(4-fluoro-3-(methylsulfonyl)phenyl)-2-(2,2,2-trifluoroethyl)piperazin-1-yl)-4-methylpyrimidine-5-carboxylate]: the EC50 stood at 191 nM in assay [1] and 1040 nM in assay [2] (agonist mode). In addition, the “Cell LXRβ efficacy” value in assay [1] (agonist mode) is 191 (31) %. Also, on LXR β LBD protein (read-out: LXRβ Binding Ki), the Ki was found to be 17 nM. Further, the “Cell LXRα efficacy” value in assay [2] is given as 1038 (43) %.

Turning to `CS(=O)(=O)c1cccc(N2CCN(Cc3ccc(C(F)(F)F)c(Br)c3)C(c3ccccc3)C2)c1` (stereo not shown) [46-37, 1-(3-bromo-4-(trifluoromethyl)benzyl)-4-(3-(methylsulfonyl)phenyl)-2-phenylpiperazine], the EC50 in assay [1] was 1190 nM; in assay [2] (agonist mode), 3450 nM. Further, in assay [1] (agonist mode), the “Cell LXRβ efficacy” value is reported as 1194 (55) %. Further, on LXR β LBD protein (read-out: LXRβ Binding Ki), the inhibitory constant (Ki) came out at 30 nM. For the same compound, the “Cell LXRα efficacy” value in assay [2] is recorded as 3451 (52) %.

As for `CS(=O)(=O)c1cccc(N2CCN(C[C@@H]3C[C@H]4CC[C@@H](C3)N4CC(F)(F)F)[C@@H](c3ccccc3)C2)c1` [48-76, (1R,3s,5S)-3-(((S)-4-(3-(methylsulfonyl)phenyl)-2-phenylpiperazin-1-yl)methyl)-8-(2,2,2-trifluoroethyl)-8-azabicyclo[3.2.1]octane], the “Cell LXRβ efficacy” value in assay [1] (setting [3]) was determined as 27%. Further, the EC50 in assay [1] (setting [4]) was 374 nM. For the same compound, on LXR β LBD protein (setting [5]), the Ki came to 67 nM. In addition, in assay [2], the “Cell LXRα efficacy” value is on record as 1394 (54) % and the EC50 came out at 1390 nM.

On to `CCOC(=O)c1cnc(N2CCN(c3ccc(F)c(S(C)(=O)=O)c3)C[C@H]2C2CC2)nc1C(F)(F)F` [9-4, ethyl (R)-2-(2-cyclopropyl-4-(4-fluoro-3-(methylsulfonyl)phenyl)piperazin-1-yl)-4-(trifluoromethyl)pyrimidine-5-carboxylate], for which the EC50 is 318 nM in assay [1] and 1410 nM in assay [2] (agonist mode). In addition, in assay [1] (agonist mode), the “Cell LXRβ efficacy” value is recorded as 318 (27) %. For the same compound, on LXR β LBD protein (read-out: LXRβ Binding Ki), the Ki amounted to 13 nM. Besides, the “Cell LXRα efficacy” value in assay [2] was 1415 (37) %.

In assay [1], `CC1(C)CCC(O)(CN2CCN(c3cccc(S(C)(=O)=O)c3)C[C@@H]2c2ccccc2)CC1` [Cpd No 53-1, (S)-4,4-dimethyl-1-((4-(3-(methylsulfonyl)phenyl)-2-phenylpiperazin-1-yl)methyl)cyclohexan-1-ol] gave an EC50 of 1030 nM. Further, the “Cell LXRβ efficacy” value in assay [1] (setting [3]) is reported as 1030 (53) %. The Ki at LXR β LBD protein (setting [5]) worked out at 121 nM.

As to `C=C(C)c1cnc(N2CCN(c3ccc(CO)c(S(C)(=O)=O)c3)C[C@H]2C(C)C)nc1C(F)(F)F` [14-2, (R)-(4-(3-isopropyl-4-(5-(prop-1-en-2-yl)-4-(trifluoromethyl)pyrimidin-2-yl)piperazin-1-yl)-2-(methylsulfonyl)phenyl)methanol], the EC50 in assay [1] turned out to be 28 nM; in assay [2] (agonist mode), 186 nM. Moreover, in assay [1] (agonist mode), the “Cell LXRβ efficacy” value was 28 (42) %. In addition, the Ki at LXR β LBD protein (read-out: LXRβ Binding Ki) was determined as 1 nM. Moreover, the “Cell LXRα efficacy” value in assay [2] is listed as 186 (63) %.

As to `CS(=O)(=O)c1cccc(N2CCN(CC3(F)CCN(CC(F)(F)F)CC3)[C@@H](c3ccc(F)cc3)C2)c1` [48-57, (S)-1-((4-fluoro-1-(2,2,2-trifluoroethyl)piperidin-4-yl)methyl)-2-(4-fluorophenyl)-4-(3-(methylsulfonyl)phenyl)piperazine], the EC50 was 1270 nM in assay [1] and 4500 nM in assay [2] (setting [3]). Further, the “Cell LXRβ efficacy” value in assay [1] (setting [3]) was 1272 (13) %. Also, the Ki on LXR β LBD protein (setting [5]) was determined as 492 nM. Moreover, the “Cell LXRα efficacy” value in assay [2] is listed as 4500 (37) %.

As to `CC(C)[C@@H]1CN(c2ccc(F)c(S(C)(=O)=O)c2)CCN1c1nc2cccnc2s1` [Cpd No 7-57, (R)-2-(4-(4-fluoro-3-(methylsulfonyl)phenyl)-2-isopropylpiperazin-1-yl)thiazolo[5,4-b]pyridine], in assay [1], the “Cell LXRβ efficacy” value is recorded as 44 (90) % and the EC50 came to 44 nM. The Ki on LXR β LBD protein (read-out: LXRβ Binding Ki) turned out to be 12 nM.

For the compound `CC(C)[C@@H]1CN(c2ccc(CO)c(S(C)(=O)=O)c2)CCN1c1nc(C(F)(F)F)c(CO)o1` [11-16, (R)-(2-(4-(4-(hydroxymethyl)-3-(methylsulfonyl)phenyl)-2-isopropylpiperazin-1-yl)-4-(trifluoromethyl)oxazol-5-yl)methanol], a half-maximal effect in assay [1] (EC50) was put at 467 nM. The “Cell LXRβ efficacy” value in assay [1] (agonist mode) is on record as 467 (76) %. Moreover, at LXR β LBD protein (read-out: LXRβ Binding Ki), the Ki came to 95 nM.
